Test results published in patent US20240158370A1, “CK1 alpha AND DUAL CK1 alpha / GSPT1 DEGRADING COMPOUNDS” (Innovo Therapeutics, Inc., priority 2022, published 2024).

What was measured:
[1] = target: GSPT1 (Homo sapiens, UniProt P15170+Q96SW2); test: HiBiT degradation assay, GSPT1, Procedure A; assay type: cell-based; design: HiBit-GSPT1 KI HEK293(LgBit) Cells; host or cells: HEK293(LgBit) knock-in cells
In short: (§1)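 Cells in DMEM+10% FBS at 1×10^6 cells/ml were added to pre-spotted compound (10-point dose response, 10 μM to 0.005 μM, 0.1% DMSO) and incubated 6 h at 37° C. Nano-Glo HiBiT lytic reagent was added and luminescence read. DC50 and Ymin came from 4-parameter curve fits.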

[2] = target: T1, CK1α (Homo sapiens, UniProt P48729+Q96SW2); test: HiBiT degradation assay, CK1α, Procedure A; assay type: cell-based
T1 construct: CSNK1A1-HiBit KI HEK293(LgBit) Cells; host or cells: HEK293(LgBit) knock-in cells
In short: as §1

Chain of GSPT1 (P15170 whole entry): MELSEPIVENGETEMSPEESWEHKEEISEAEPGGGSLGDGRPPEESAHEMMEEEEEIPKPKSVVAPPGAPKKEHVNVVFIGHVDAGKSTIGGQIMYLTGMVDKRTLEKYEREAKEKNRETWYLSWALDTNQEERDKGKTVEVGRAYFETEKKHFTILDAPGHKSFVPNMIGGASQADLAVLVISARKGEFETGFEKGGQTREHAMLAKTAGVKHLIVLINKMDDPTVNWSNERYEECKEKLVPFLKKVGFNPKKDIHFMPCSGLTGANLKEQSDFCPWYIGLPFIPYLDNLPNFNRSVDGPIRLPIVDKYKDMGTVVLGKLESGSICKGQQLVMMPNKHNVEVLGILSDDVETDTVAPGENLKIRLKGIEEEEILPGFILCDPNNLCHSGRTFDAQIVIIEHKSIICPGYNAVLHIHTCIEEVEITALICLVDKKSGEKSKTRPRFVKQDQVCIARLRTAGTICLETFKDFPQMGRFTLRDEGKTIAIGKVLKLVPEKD
Chain of GSPT1 (Q96SW2 whole entry): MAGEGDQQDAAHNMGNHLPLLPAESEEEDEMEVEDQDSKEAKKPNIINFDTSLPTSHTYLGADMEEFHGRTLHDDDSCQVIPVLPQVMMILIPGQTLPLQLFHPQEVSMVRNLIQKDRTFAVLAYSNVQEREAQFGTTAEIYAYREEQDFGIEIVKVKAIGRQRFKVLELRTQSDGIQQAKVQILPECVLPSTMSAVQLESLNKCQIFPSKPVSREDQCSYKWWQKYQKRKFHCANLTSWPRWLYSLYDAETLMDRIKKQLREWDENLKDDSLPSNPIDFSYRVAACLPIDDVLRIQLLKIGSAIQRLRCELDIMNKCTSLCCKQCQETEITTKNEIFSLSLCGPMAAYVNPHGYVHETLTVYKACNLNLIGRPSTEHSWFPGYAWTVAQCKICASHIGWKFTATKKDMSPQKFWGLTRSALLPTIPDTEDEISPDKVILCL
Chain of GSPT1 (Q16531 whole entry partner): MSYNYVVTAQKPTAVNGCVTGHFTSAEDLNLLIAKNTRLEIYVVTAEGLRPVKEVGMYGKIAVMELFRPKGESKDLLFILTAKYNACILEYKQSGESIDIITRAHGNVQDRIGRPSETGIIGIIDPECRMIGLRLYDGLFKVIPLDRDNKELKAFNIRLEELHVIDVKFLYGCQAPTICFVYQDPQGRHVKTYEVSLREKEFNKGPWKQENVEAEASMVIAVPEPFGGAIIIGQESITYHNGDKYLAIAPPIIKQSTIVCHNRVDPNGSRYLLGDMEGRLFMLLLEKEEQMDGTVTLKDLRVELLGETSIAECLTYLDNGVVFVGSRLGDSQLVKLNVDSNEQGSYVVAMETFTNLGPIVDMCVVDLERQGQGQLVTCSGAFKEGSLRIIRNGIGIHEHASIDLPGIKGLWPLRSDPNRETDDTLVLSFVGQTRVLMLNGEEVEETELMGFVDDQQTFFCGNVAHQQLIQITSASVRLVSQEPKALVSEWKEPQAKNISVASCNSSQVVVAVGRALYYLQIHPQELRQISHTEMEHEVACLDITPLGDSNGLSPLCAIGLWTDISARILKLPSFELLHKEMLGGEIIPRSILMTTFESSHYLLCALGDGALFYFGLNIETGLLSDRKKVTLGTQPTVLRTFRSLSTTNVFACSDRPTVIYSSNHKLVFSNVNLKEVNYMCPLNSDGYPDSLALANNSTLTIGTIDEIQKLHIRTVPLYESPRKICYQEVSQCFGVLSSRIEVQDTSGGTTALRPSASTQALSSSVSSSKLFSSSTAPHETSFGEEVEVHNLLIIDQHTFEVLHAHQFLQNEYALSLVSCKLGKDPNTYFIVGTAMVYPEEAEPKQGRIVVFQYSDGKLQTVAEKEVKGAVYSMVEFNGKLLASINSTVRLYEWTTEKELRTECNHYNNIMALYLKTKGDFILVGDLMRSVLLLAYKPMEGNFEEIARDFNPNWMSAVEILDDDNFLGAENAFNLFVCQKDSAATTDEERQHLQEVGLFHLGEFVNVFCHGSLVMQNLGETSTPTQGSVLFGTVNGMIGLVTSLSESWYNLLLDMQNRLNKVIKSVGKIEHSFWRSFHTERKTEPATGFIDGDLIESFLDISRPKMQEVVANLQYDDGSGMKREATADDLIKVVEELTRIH
T1 sequence (P48729 whole entry): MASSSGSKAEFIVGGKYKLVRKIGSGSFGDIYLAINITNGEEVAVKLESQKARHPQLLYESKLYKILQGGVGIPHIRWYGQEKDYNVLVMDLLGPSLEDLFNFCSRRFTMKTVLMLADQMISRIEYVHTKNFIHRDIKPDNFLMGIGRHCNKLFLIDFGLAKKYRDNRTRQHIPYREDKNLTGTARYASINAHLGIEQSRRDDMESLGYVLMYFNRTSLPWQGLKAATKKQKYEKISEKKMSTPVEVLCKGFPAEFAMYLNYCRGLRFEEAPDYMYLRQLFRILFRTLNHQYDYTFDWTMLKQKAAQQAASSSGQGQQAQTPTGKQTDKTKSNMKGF
T1 sequence (Q96SW2 whole entry): as the sequence (Q96SW2 whole entry) above
T1 sequence (Q16531 whole entry partner): as the sequence (Q16531 whole entry partner) above

DC50 ([1]; six hours) [nM]	GSPT1 Ymin ([1]; six hours)	CK1α Ymin ([2]; six hours)	DC50 ([2]; six hours) [nM]	DC50 ([1]; six hours incubation) [nM]	GSPT1 Ymin ([1]; six hours incubation)	CK1α Ymin ([2]; six hours incubation)	DC50 ([2]; six hours incubation) [nM]	Structure (SMILES)
≥ 25	F (F = >75-100% remaining)	E (E = >25-75% remaining)	≥ 25					Cn1ncc(-c2ccc3c(c2)CN(C2CCC(=O)NC2=O)C3=O)c1-c1cn[nH]c1 (centres unmarked) [Example 468]
≥ 25	F (F = >75-100% remaining)	E (E = >25-75% remaining)	≥ 25					Cn1ncc(-c2ccc3c(c2)CN(C2CCC(=O)NC2=O)C3=O)c1-c1ccn(C)c(=O)c1 (centres unmarked) [Example 457]
≥ 25	F (F = >75-100% remaining)	E (E = >25-75% remaining)	< 25					Cn1nc(-c2ccc3c(c2)CN(C2CCC(=O)NC2=O)C3=O)nc1N1Cc2ccccc2C1 (centres unmarked) [Example 609, 3-(5-(5-(isoindolin-2-yl)-1-methyl-1H-1,2,4-triazol-3-yl)-1-oxoisoindolin-2-yl)piperidine-2,6-dione]
				< 25	E (E = >25-75% remaining)	C (C = 0-10% remaining)	< 25	COc1ccc(-c2c(-c3ccc4c(c3)CN(C3CCC(=O)NC3=O)C4=O)ncn2C)cc1F (centres unmarked) [Example 194]
				≥ 25	F (F = >75-100% remaining)	E (E = >25-75% remaining)	≥ 25	Cc1ccc(C#N)cc1-c1c(-c2ccc3c(c2)CN(C2CCC(=O)NC2=O)C3=O)ncn1C (centres unmarked) [Example 243]
< 25	F (F = >75-100% remaining)	D (D = >10- 25% remaining)	< 25					Cn1cnc(-c2ccc3c(c2)CN(C2CCC(=O)NC2=O)C3=O)c1-c1ccc2cnn(C)c2c1 (centres unmarked) [Example 498]
				≥ 25	F (F = >75-100% remaining)	D (D = >10- 25% remaining)	≥ 25	CNC(=O)c1ccc(-c2c(-c3ccc4c(c3)CN(C3CCC(=O)NC3=O)C4=O)cnn2C)cc1 (centres unmarked) [Example 56]
< 25	E (E = >25-75% remaining)	C (C = 0-10% remaining)	< 25					Cn1cnc(-c2ccc3c(c2)CN(C2CCC(=O)NC2=O)C3=O)c1-c1ccc(N)cc1 (centres unmarked) [Example 439]
< 25	E (E = >25-75% remaining)	D (D = >10- 25% remaining)	≥ 25					Cn1cnc(-c2ccc3c(c2)CN(C2CCC(=O)NC2=O)C3=O)c1-c1cnn(Cc2ccccc2)c1 (centres unmarked) [Example 406]
				≥ 25	F (F = >75-100% remaining)	E (E = >25-75% remaining)	< 25	Cc1ccc(-c2c(-c3ccc4c(c3)CN(C3CCC(=O)NC3=O)C4=O)cnn2C)c(Cl)c1 (centres unmarked) [Example 85]
≥ 25	F (F = >75-100% remaining)	E (E = >25-75% remaining)	< 25					Cn1ncc(-c2ccc3c(c2)CN(C2CCC(=O)NC2=O)C3=O)c1-c1cccc(-n2cccn2)c1 (centres unmarked) [Example 479]
				≥ 25	F (F = >75-100% remaining)	D (D = >10- 25% remaining)	< 25	Cc1sccc1-c1c(-c2ccc3c(c2)CN(C2CCC(=O)NC2=O)C3=O)ncn1C (centres unmarked) [Example 231]
≥ 25	F (F = >75-100% remaining)	D (D = >10- 25% remaining)	< 25					Cn1nc(-c2ccc3c(c2)CN(C2CCC(=O)NC2=O)C3=O)nc1N1CCc2ccccc2C1 (centres unmarked) [Example 603, 3-(5-(5-(3,4-dihydroisoquinolin-2 (1H)-yl)-1-methyl-1H-1,2,4-triazol-3-yl)-1-oxoisoindolin-2-yl)piperidine-2,6-dione]
				< 25	F (F = >75-100% remaining)	D (D = >10- 25% remaining)	< 25	Cn1cnc(-c2ccc3c(c2)CN(C2CCC(=O)NC2=O)C3=O)c1C1CC1 (centres unmarked) [Example 316]
